The values below come from US9981906B2, “Trans-clomiphene metabolites and uses thereof” (Repros Therapeutics Inc., priority 2011, dated 2018).

The conditions of data set [1]: following a single dose; cited from earlier work.
In data set [2] the test system is cryopreserved hepatocytes from cynomolgus monkey. The data set is described as follows: Metabolite profile of Androxal in cryopreserved cynomolgus monkey hepatocytes. In kind it is in vitro ADME. The following applies: LC/MS. As for the experimental part: (§1) A study was conducted to determine the metabolic profile of Androxal® in cryopreserved hepatocytes from Sprague-Dawley rat, Beagle dog, cynomolgus monkey, and human. The liver is the main site of drug metabolism and the full complement of hepatic drug metabolizing enzymes (including liver enzymes of the CYP P450 family) are maintained within the intact cell. Isolated liver hepatocytes constitute a physiologically relevant experimental model for the evaluation of liver-related drug properties such as metabolism. Cyropreservation of the hepatocytes greatly enhances their availability for studies.
(§2) Primary hepatocytes isolated from several donors for each animal species and five human donors were pooled according to species and cryopreserved. The hepatocytes were thawed, subjected to Percoll density gradient centrifugation to remove debris and counted to determine yield. Viability was measured using Trypan blue exclusion. The hepatocytes were diluted with CYP assay buffer (Krebs-Hensleit Buffer) to prepare a 2× cell suspension of 2.0×10^6 viable cells/ml. Aliquots of the 2× hepatocyte suspension (0.5 ml containing 1.0×10^6 cells) were transferred to appropriate wells for a final 1× cell density of 1.0×10^6 cells/well. All incubations were conducted at 37±1° C., 95% air/5% CO2, and saturating humidity in 12-well uncoated culture plates. […] The cultures were incubated for 1 and 4 hours. The sample size was N=2 replicates.
(§3) Matrix control samples were included as a source of background matrix components to aid in metabolite identification. Equal volumes of 2× hepatocyte suspension and CYP assay buffer without Androxal® were combined and incubated for 4 hours.
(§4) Chemical degradation control samples were included to evaluate the possibility of chemical degradation of Androxal® in the absence of cells. Equal volumes of 2× Androxal® dosing solution (6 and 60 μM) and CYP buffer were combined and incubated for 1 and 4 hours.
(§5) The incubations were terminated as follows: Metabolic positive control incubations were terminated by adding an equal volume of methanol. All other incubations were terminated by placing the plates on ice. The contents of each well were mixed thoroughly and divided into five cryovials. An equal volume of organic solvent was added to one cryovial. The samples were either immediately analyzed or stored in cryovials at −70°±10 C until analysis.
(§6) All samples were analyzed by reverse-phase HPLC. A UV profile of the samples was obtained followed by liquid chromatography-mass spectrometry (LC/MS) analysis using a Micromass® Q-Tof-2 mass spectrometer capable of conducting accurate mass measurement. Preliminary metabolite identification was aided by the use of Metabolynx® software.
(§7) The relative amounts of Androxal and its metabolites after 1 and 4 hour incubations are reported below at Tables 1-4.

Data set [3] relates to cryopreserved hepatocytes from Sprague-Dawley rat. Put plainly: Metabolite profile of Androxal in cryopreserved Sprague-Dawley rat hepatocytes. Type of data set: in vitro ADME. The following applies: LC/MS. As for the experimental part:
as §1, §2, §3, §4, §5, §6, §7

Data set [4] has as its system cryopreserved hepatocytes from Beagle dog. Put plainly: Metabolite profile of Androxal in cryopreserved Beagle dog hepatocytes. The note with it: LC/MS. In kind it is in vitro ADME. As for the experimental part: as §1, §2, §3
Chemical degradation control samples were included to evaluate the possibility of chemical degradation of Androxal® in the absence of cells. […]
as §5, §6, §7

Data set [5] concerns cryopreserved hepatocytes from human. Put plainly: Metabolite profile of Androxal in cryopreserved human hepatocytes. The note with it: LC/MS. In kind it is in vitro ADME. As for the experimental part: as §1, §2, §3, §4, §5, §6, §7
Setting [6] is: incubations containing 3 μM Androxal for 1 hour.
The mark [7] stands for this setting: incubations containing 30 μM Androxal for 4 hours.
The mark [8] stands for this setting: incubations containing 30 mM Androxal for 1 hour.
[9] abbreviates: incubations containing 3 μM Androxal for 4 hours.

Take `CCN(CC)CCOc1ccc(/C(=C(/Cl)c2ccccc2)c2ccccc2)cc1` (single isomer, unassigned) [cis isomer, cis-clomiphene]: the residual blood levels result in data set [1] was “in excess of one month”.
On to `CCNCCOc1ccc(/C(=C(/Cl)c2ccccc2)c2ccccc2)cc1` [C24H24NOCl, N-desethyl-trans-clomiphene], for which the results for the “relative amount, Cyno. monkey” value in data set [2] (setting [6]), in data set [2] (setting [7]) and in data set [2] (setting [8]) were 22.3, 2175.0 and 1029.8, respectively. Besides, the “relative amount, SD Rat” value in data set [3] (setting [7]) worked out at 673.8; in data set [3] (setting [8]), 336.6. For the same compound, the figures for the “relative amount, Beagle dog” value in data set [4] (setting [6]), in data set [4] (setting [9]) and in data set [4] (setting [7]) were 25.9, 18.6 and 723.5, respectively. The “relative amount, Human” value in data set [5] (setting [6]) is 48.3; in data set [5] (setting [9]) it was 43.4; in data set [5] (setting [7]) it was 1262.4; in data set [5] (setting [8]) it was 699.8.
Consider `CCN(CC)CCOc1ccc(/C(=C(\Cl)c2ccccc2)c2ccccc2)cc1` [C26H28ClNO, trans-clomiphene], for which the “relative amount, Cyno. monkey” value in data set [2] (setting [6]) turned out to be 279.1; in data set [2] (setting [9]), 84.2; in data set [2] (setting [7]), 2828.5; in data set [2] (setting [8]), 3166.4. The “relative amount, SD Rat” value in data set [3] (setting [6]) is given as 240.0; in data set [3] (setting [9]), 182.5; in data set [3] (setting [7]), 3123.3; in data set [3] (setting [8]), 3166.8. Besides, the “relative amount, Beagle dog” value in data set [4] (setting [6]) was 148.9; in data set [4] (setting [9]), 103.2; in data set [4] (setting [7]), 4989.3; in data set [4] (setting [8]), 6227.3. For the same compound, the “relative amount, Human” value in data set [5] (setting [6]) is recorded as 625.8; in data set [5] (setting [9]) it was 285.4; in data set [5] (setting [7]), 4012.5; in data set [5] (setting [8]), 4297.8.
Regarding `CCN(CC)CCOc1ccc(/C(=C(/Cl)c2ccccc2)c2ccc(O)cc2)cc1` [C26H28NO2Cl, 4-hydroxy-trans-clomiphene], the “relative amount, Cyno. monkey” value in data set [2] (setting [6]) turned out to be 239.4; in data set [2] (setting [9]), 43.4. Besides, the “relative amount, SD Rat” value in data set [3] (setting [6]) is recorded as 100.9; in data set [3] (setting [9]), 31.1; in data set [3] (setting [8]) it was 992.7. Further, the “relative amount, Beagle dog” value in data set [4] (setting [6]) stood at 218.8; in data set [4] (setting [9]), 103.4; in data set [4] (setting [8]), 1535.2. In addition, the “relative amount, Human” value in data set [5] (setting [6]) is listed as 240.3; in data set [5] (setting [9]), 247.0.
Consider `CCN(CC)CCOc1ccc(C(c2ccc(O)c(O)c2)C(Cl)c2ccccc2)cc1` (centres unmarked) [C26H30NO3Cl], for which the “relative amount, Beagle dog” value in data set [4] (incubations containing 30 μM Androxal for 4 hours, retention time 22.7) came to 65.9; in data set [4] (incubations containing 30 μM Androxal for 4 hours, retention time 22.95) it was 43.7.
